Where two headings read alike, the source gives them in different places.
Legend:
[1] = target: T1, EGFR T790M/L858R Ba/F3 cell line (Homo sapiens, UniProt P00533, T790M/L858R, cells depend on it); assay: Ba/F3 cell proliferation (MTS assay), EGFR T790M/L858R; format: cell-based, murine; conditions: for Activity (% cetuximab); inhibition of proliferation: compound at 1 μM in the presence of 1 μg/mL cetuximab; for Activity (% cetuximab); inhibition of proliferation / Activity (% DMSO control); inhibition of proliferation: EGFR T790M/L858R Ba/F3; for Activity (% DMSO control); inhibition of proliferation: compound at 1 μM
T1 construct: "The constructs were shuttled into the retroviral vector JP1540 using the BD Creator™ System (BD Biosciences)
T1 sequence (P00533 whole entry T790M/L858R): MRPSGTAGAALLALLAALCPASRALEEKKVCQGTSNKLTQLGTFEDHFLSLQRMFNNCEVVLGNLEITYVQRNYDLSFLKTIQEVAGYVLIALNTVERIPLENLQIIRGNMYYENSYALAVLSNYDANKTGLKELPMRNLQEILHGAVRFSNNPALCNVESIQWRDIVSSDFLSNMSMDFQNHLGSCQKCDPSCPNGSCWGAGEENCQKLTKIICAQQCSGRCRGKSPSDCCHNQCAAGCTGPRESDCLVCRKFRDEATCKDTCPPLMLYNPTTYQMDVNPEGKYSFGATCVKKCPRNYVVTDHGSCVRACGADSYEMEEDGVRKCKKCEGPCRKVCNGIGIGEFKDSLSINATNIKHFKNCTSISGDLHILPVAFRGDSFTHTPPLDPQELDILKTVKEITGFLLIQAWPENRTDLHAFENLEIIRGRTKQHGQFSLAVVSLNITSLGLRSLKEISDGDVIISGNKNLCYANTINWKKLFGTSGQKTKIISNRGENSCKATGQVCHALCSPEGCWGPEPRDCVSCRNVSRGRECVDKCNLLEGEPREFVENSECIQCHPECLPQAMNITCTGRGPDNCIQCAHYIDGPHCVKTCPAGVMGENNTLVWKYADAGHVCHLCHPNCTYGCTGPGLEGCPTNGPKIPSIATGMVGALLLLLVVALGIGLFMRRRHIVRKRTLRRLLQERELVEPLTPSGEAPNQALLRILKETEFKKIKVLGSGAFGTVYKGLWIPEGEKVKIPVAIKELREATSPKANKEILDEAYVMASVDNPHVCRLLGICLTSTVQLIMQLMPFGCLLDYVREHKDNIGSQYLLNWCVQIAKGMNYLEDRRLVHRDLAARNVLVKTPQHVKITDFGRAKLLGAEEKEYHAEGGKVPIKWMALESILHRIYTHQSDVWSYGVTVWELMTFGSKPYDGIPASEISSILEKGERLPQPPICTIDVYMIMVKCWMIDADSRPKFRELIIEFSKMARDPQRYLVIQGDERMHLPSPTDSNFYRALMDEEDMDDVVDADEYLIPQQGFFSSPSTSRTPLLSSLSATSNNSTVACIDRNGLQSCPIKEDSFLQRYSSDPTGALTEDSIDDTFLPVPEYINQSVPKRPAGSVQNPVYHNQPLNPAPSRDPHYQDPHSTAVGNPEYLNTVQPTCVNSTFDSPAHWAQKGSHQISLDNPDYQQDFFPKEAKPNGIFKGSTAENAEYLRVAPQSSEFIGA
Experimental: All cell lines were maintained in RPM 1640 (Cellgro; Mediatech Inc., Herndon, Calif.) supplemented with 10% FBS 100 units/mL penicillin, 100 units/mL streptomycin, and 2 mM glutamine. […] The EGFR 1941R mutation was introduced via site directed mutagenesis using the Quick Change Site-Directed Mutagenesis kit (Stratagene: La Jolla, Calif.) according to the manufacturer's instructions. All constructs were confirmed by DNA sequencing. The constructs were shuttled into the retroviral vector JP1540 using the BD Creator™ System (BD Biosciences). Ba/F3 cells were infected with retrovirus and according to standard protocols, as described previously (Zhou 2009). Stable clones were obtained by selection in puromycin (2 μg/ml).
Growth and inhibition of growth was assessed by MTS assay and was performed according to previously established methods (Zhou 2009). The MTS assay is a colorimetric method for determining the number of viable cells that is based on the bioreduction of MTS by cells to a formazan product that is soluble in cell culture medium and can be detected spectrophotometrically. […] All experimental points were set up in six wells and all experiments were repeated at least three times. […] The curves were fitted using anon-linear regression model with a sigmoidal dose response.

[2] = system: EGFR L858R/T790M/C797S Ba/F3 cell line; assay: Ba/F3 cell proliferation (MTS assay), EGFR L858R/T790M/C797S; format: cell-based, murine; conditions: for Activity (% cetuximab); inhibition of proliferation: compound at 1 μM in the presence of 1 μg/mL cetuximab, EGFR L858R/T790M/C797S; for Activity (% DMSO control); inhibition of proliferation: compound at 1 μM, EGFR L858R/T790M/C797S Ba/F3
Experimental: The EGFR mutant L858R, Del E746_A750, L858R/T790M, DelE746_A750/T790M, L858R/T790M/C797S and Del/T790M/C797S Ba/F3 cells were previously described (Zhou et al., Nature 462, (2009), 1070-1074). All cell lines were maintained in RPM 1640 (Cellgro; Mediatech Inc., Herndon, Calif.) supplemented with 10% FBS 100 units/mL penicillin, 100 units/mL streptomycin, and 2 mM glutamine. L858R cells were maintained in ACL-4 media (Invitrogen, Carlsbad, Calif.) supplemented with 5% FBS, 100 units/mL penicillin, 100 units/mL streptomycin, and 2 mM glutamine. The EGFR 1941R mutation was introduced via site directed mutagenesis using the Quick Change Site-Directed Mutagenesis kit (Stratagene: La Jolla, Calif.) according to the manufacturer's instructions. All constructs were confirmed by DNA sequencing. The constructs were shuttled into the retroviral vector JP1540 using the BD Creator™ System (BD Biosciences). Ba/F3 cells were infected with retrovirus and according to standard protocols, as described previously (Zhou 2009). Stable clones were obtained by selection in puromycin (2 μg/ml).
Growth and inhibition of growth was assessed by MTS assay and was performed according to previously established methods (Zhou 2009). The MTS assay is a colorimetric method for determining the number of viable cells that is based on the bioreduction of MTS by cells to a formazan product that is soluble in cell culture medium and can be detected spectrophotometrically. Ba/F3 cells of different EGFR genotypes were exposed to treatment and the number of cells used per experiment determined empirically and has been previously established (Zhou 2009). All experimental points were set up in six wells and all experiments were repeated at least three times. […] The curves were fitted using anon-linear regression model with a sigmoidal dose response.

[3] = target: T2, recombinant EGFR T790M/L858R kinase (Homo sapiens, UniProt P00533, L858R/T790M); assay: HTRF-based EGFR biochemical assay
T2 construct: Constructs spanning residues 696-1022 of the human EGFR; GST (cleaved yes); made in house; host or cells: Sf9 insect cells
T2 sequence (P00533 696-1022 T790M/L858R): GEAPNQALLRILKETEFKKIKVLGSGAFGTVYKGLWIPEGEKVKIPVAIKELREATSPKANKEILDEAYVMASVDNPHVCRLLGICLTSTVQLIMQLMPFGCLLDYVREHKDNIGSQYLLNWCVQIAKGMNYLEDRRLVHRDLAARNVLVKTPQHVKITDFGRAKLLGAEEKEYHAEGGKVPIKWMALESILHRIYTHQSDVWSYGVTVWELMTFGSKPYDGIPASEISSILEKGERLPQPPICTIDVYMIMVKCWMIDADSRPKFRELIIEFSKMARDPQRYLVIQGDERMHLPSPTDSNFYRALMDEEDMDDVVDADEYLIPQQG
Experimental: EGFR kinase proteins were purified by glutathione-affinity chromatography followed by size-exclusion chromatography after cleavage with TEV or thrombin to remove the GST fusion partner following established procedures. (Yun 2008; Yun 2007).
EGFR biochemical assays were carried out using a homogeneous time-resolved fluorescence (HTRF) assay as described previously. The reaction mixtures contained 1 μM biotin-Lck-peptide substrate, wild type or mutant EGFR enzyme in reaction buffer (50 mM HEPES pH 7.1, 10 mM MgCl2, 0.01% BSA. 1 mM TCEP and 0.1 mM Na3VO4) at a final volume of 10 μL. […] All reactions were carried out at room temperature in white ProxiPlate™ 384-well Plus plates (PerkinElmer) and were quenched with 5 μL of 0.2 M EDTA at 60 min. Five μL per well of the detection reagent containing 2.5 ng PT66K (Cis-bio) and 0.05 μg SAXL (Prozyme) were added, and the plates were then incubated at room temperature for 1 hour and read with an EnVision plate reader.

[4] = absence of cetuximab, read-out: Ba/F3 cellular activity (EC50) T790M/L858R
[5] = read-out: Ba/F3 cellular activity (EC50) T790M/L858R + Cetuximab (1 μg/mL), presence of 1 μg/mL cetuximab

Structure (SMILES) | EC50 [1, 4] [nM] | Activity (% cetuximab); inhibition of proliferation [1] | Activity (% DMSO control); inhibition of proliferation [1] | EC50 [1, 5] [nM] | Activity (% cetuximab); inhibition of proliferation [2] | Activity (% DMSO control); inhibition of proliferation [2] | IC50 [3] [nM]
O=C1c2cc(-c3ccc(N4CCNCC4)cc3)ccc2Nc2ccc(F)cc2N1Cc1ccccc1 [Compound I-1] | ≥ 750 | B (25 ≤ B < 50) | D (75 ≤ D) | 500 to 750 | B (25 ≤ B < 50) | D (75 ≤ D) | –
O=C1c2cc(-c3ccc4[nH]ccc4c3)ccc2Nc2ccc(F)cc2N1Cc1ccccc1 [Compound I-2] | ≥ 750 | B (25 ≤ B < 50) | D (75 ≤ D) | < 250 | A (0 ≤ A < 25) | D (75 ≤ D) | < 250
CN1CCC(n2cc(-c3ccc4c(c3)C(=O)N(Cc3ccccc3)c3cc(F)ccc3N4)cn2)CC1 [Compound I-3] | ≥ 750 | B (25 ≤ B < 50) | D (75 ≤ D) | < 250 | C (50 ≤ C < 75) | D (75 ≤ D) | < 250
O=C1c2cc(-c3ccc(-c4cn[nH]c4)cc3)ccc2Nc2ccc(F)cc2N1Cc1ccccc1 [Compound I-4] | ≥ 750 | A (0 ≤ A < 25) | D (75 ≤ D) | 250 to 500 | A (0 ≤ A < 25) | D (75 ≤ D) | < 250
O=C1c2cc(-c3ccc(N4CCNCC4)cc3)ccc2Nc2ccc(F)cc2N1c1ccccc1 [Compound I-5] | ≥ 750 | D (75 ≤ D) | D (75 ≤ D) | ≥ 750 | D (75 ≤ D) | D (75 ≤ D) | ≥ 750
O=C1c2cc(-c3ccc(N4CCNCC4)cc3)ccc2Nc2ccc(F)cc2N1Cc1cccnc1 [Compound I-6] | ≥ 750 | D (75 ≤ D) | D (75 ≤ D) | ≥ 750 | D (75 ≤ D) | D (75 ≤ D) | ≥ 750
O=C1c2cc(-c3ccc(N4CCNCC4)cc3)ccc2Nc2ccc(F)cc2N1Cc1nccs1 [Compound I-7] | ≥ 750 | C (50 ≤ C < 75) | D (75 ≤ D) | ≥ 750 | D (75 ≤ D) | D (75 ≤ D) | < 250
O=C1c2cc(-c3ccc4[nH]ccc4c3)ccc2Nc2ccc(F)cc2N1c1ccccc1 [Compound I-8] | ≥ 750 | D (75 ≤ D) | D (75 ≤ D) | ≥ 750 | D (75 ≤ D) | D (75 ≤ D) | ≥ 750
O=C1c2cc(-c3ccc4[nH]ccc4c3)ccc2Nc2ccc(F)cc2N1Cc1cccnc1 [Compound I-9] | ≥ 750 | D (75 ≤ D) | D (75 ≤ D) | ≥ 750 | D (75 ≤ D) | D (75 ≤ D) | ≥ 750
O=C1c2cc(-c3ccc4[nH]ccc4c3)ccc2Nc2ccc(F)cc2N1Cc1nccs1 [Compound I-10] | ≥ 750 | D (75 ≤ D) | D (75 ≤ D) | ≥ 750 | C (50 ≤ C < 75) | D (75 ≤ D) | ≥ 750
O=C1c2cc(-c3ccc(N4CCNCC4)cc3)ccc2Nc2ncc(F)cc2N1Cc1ccccc1 [Compound I-12] | ≥ 750 | – | – | ≥ 750 | – | – | ≥ 750
O=C1c2cc(-c3ccc(N4CCNCC4)cc3)ccc2Nc2ccncc2N1Cc1ccccc1 [Compound I-13] | ≥ 750 | – | – | ≥ 750 | – | – | ≥ 750
Nc1ccc2c(c1)N(Cc1ccccc1)C(=O)c1cc(-c3ccc4[nH]ccc4c3)ccc1N2 [Compound I-14] | ≥ 750 | – | – | ≥ 750 | – | – | ≥ 750
CC(=O)Nc1ccc2c(c1)N(Cc1ccccc1)C(=O)c1cc(-c3ccc4[nH]ccc4c3)ccc1N2 [Compound I-15] | ≥ 750 | – | – | ≥ 750 | – | – | ≥ 750
CCC(=O)Nc1ccc2c(c1)N(Cc1ccccc1)C(=O)c1cc(-c3ccc4[nH]ccc4c3)ccc1N2 [Compound I-16] | 250 to 500 | – | – | 250 to 500 | – | – | ≥ 750
CN1CCC(c2ccc(-c3ccc4c(c3)C(=O)N(Cc3ccccc3)c3cc(F)ccc3N4)cc2)CC1 [Compound I-17] | – | – | – | – | – | – | < 250
O=C1c2cc(-c3ccc(N4CCNCC4)cc3)ccc2Nc2ccc(F)cc2N1Cc1cccc2cc[nH]c12 [Compound I-18] | ≥ 750 | – | – | < 250 | – | – | < 250
O=C1c2cc(-c3ccc(N4CCNCC4)cc3)ccc2Nc2ccc(F)cc2N1Cc1ccc2cc[nH]c2c1 [Compound I-19] | ≥ 750 | – | – | ≥ 750 | – | – | ≥ 750
CN1CCN(c2ccc(Oc3ccc4c(c3)C(=O)N(Cc3ccccc3)c3cc(F)ccc3N4)cc2)CC1 [Compound I-20, 10-benzyl-8-fluoro-2-(4-(4-methylpiperazin-1-yl)phenoxy)-5,10-dihydro-11H-dibenzo[b,e][1,4]diazepin-11-one] | ≥ 750 | – | – | 250 to 500 | – | – | < 250
CN1CCC(n2cc(-c3ccc4c(c3)C(=O)N(Cc3cccc(F)c3)c3cc(F)ccc3N4)cn2)CC1 [Compound I-22] | – | – | – | – | – | – | < 250
CN1CCC(n2cc(-c3ccc4c(c3)C(=O)N(Cc3cccc(Cl)c3)c3cc(F)ccc3N4)cn2)CC1 [Compound I-23] | ≥ 750 | – | – | ≥ 750 | – | – | < 250
CN1CCC(n2cc(-c3ccc4c(c3)C(=O)N(Cc3cc(F)cc(F)c3)c3cc(F)ccc3N4)cn2)CC1 [Compound I-24] | ≥ 750 | – | – | ≥ 750 | – | – | < 250
CN1CCC(n2cc(-c3ccc4c(c3)C(=O)N(Cc3cccc5cc[nH]c35)c3cc(F)ccc3N4)cn2)CC1 [Compound I-25] | ≥ 750 | – | – | ≥ 750 | – | – | < 250
O=C1c2cc(Br)ccc2Nc2ccc(F)cc2N1Cc1ccccc1 [I-a] | ≥ 750 | – | – | 250 to 500 | – | – | < 250
